This note sets out measurements from BindingDB's records for doi:10.1016/j.ejmech.2009.09.041 (Institute For Medical Research and Occupational Health, 2010).

One test has as its target Cholinesterase (Homo sapiens, UniProt P06276). As to the kind of experiment: Inhibition of human plasma BChE by Ellman's method. Background: In Ellman's method for cholinesterases, released thiocholine reacts with DTNB.
A further test deals with Acetylcholinesterase (Homo sapiens, UniProt P22303). As to the kind of experiment: Inhibition of human recombinant AChE by Ellman's method.
Acetylcholinesterase, sequence (P22303 whole entry): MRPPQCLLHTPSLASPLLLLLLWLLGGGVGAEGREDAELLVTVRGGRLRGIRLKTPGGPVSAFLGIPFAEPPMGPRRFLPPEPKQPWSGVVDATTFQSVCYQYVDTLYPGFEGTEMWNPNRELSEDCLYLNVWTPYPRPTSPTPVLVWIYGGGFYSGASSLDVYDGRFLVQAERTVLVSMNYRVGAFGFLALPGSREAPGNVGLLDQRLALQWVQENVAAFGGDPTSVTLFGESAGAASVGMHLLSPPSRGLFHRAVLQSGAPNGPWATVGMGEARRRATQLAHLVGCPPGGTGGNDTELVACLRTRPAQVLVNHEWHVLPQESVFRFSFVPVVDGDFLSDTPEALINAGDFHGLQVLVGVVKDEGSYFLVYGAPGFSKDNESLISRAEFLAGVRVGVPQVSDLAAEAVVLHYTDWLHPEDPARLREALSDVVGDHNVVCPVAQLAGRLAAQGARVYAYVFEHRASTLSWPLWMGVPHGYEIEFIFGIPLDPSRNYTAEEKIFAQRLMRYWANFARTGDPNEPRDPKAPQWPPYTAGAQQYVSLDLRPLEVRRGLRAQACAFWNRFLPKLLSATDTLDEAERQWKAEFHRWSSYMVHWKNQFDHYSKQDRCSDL

Cholinesterase, sequence (P06276 whole entry): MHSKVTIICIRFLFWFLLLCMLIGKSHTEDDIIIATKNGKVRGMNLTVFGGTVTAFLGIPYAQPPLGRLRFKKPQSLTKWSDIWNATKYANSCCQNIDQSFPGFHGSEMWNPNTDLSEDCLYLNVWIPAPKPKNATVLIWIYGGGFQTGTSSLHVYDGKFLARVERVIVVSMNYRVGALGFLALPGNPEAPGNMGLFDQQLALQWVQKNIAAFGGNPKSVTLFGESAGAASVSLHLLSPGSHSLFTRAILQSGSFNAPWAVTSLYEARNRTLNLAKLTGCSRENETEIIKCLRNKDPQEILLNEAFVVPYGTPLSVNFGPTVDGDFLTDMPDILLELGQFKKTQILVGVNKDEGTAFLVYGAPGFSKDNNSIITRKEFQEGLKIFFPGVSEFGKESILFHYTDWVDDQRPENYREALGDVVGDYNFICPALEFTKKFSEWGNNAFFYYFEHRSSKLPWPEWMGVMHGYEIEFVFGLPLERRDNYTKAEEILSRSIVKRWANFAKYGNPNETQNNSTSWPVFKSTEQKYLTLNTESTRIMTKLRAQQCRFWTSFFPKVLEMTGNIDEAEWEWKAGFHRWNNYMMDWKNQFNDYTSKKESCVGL

As usually defined, the Ki is the dissociation constant of the complex between target and ligand, obtained from inhibition or displacement. As to `O=c1c(O)c(-c2ccc(O)c(O)c2)oc2cc(O)cc(O)c12` [2-(3,4-dihydroxyphenyl)-3,5,7-trihydroxy-chromone;hydrate], the figures for the Ki at Cholinesterase and on Acetylcholinesterase were 68 µM and 38.3 µM, respectively.

As to `O=c1cc(-c2ccc(O)c(O)c2)oc2cc(O)cc(O)c12` [2-(3,4-dihydroxyphenyl)-5,7-dihydroxy-4H-chromen-4-one], the Ki amounted to 166 µM at Cholinesterase and 65.8 µM at Acetylcholinesterase.

With `O=c1c(O)c(-c2cc(O)c(O)c(O)c2)oc2cc(O)cc(O)c12`, the Ki at Cholinesterase is 71 µM; on Acetylcholinesterase, 37.8 µM.

On to `O=c1c(O)c(-c2ccc(O)c(O)c2)oc2cc(O)ccc12` [2-(3,4-dihydroxyphenyl)-3,7-dihydroxy-chromen-4-one], for which the Ki turned out to be 90 µM on Cholinesterase and 100 µM at Acetylcholinesterase.

For the compound `O=c1cc(-c2ccc(O)cc2)oc2cc(O)cc(O)c12` [Naringenin, 18], the inhibition constant Ki at Cholinesterase amounted to 37.4 µM; at Acetylcholinesterase, 122 µM.

As for `O=c1c(O)c(-c2ccccc2)oc2cc(O)cc(O)c12` [norizalpinin], the Ki at Cholinesterase was 6.9 µM; at Acetylcholinesterase, 85.6 µM.

Take `C[C@@H]1O[C@@H](OC[C@H]2O[C@@H](Oc3c(-c4ccc(O)c(O)c4)oc4cc(O)cc(O)c4c3=O)[C@H](O)[C@@H](O)[C@@H]2O)[C@H](O)[C@H](O)[C@H]1O` [3-Rhamnoglucosylquercetin]: the Ki was 501 µM at Cholinesterase and over 300 µM on Acetylcholinesterase.

On to `O=c1c(O)c(-c2ccc(O)cc2)oc2cc(O)cc(O)c12`, for which the Ki on Cholinesterase is 43.1 µM; at Acetylcholinesterase it was 92.8 µM.
